In data set [1] the target is T1, Electrophorus electricus AChE (EeAChE) (Electrophorus electricus, UniProt O42275).
T1 construct: purified AChE from Electrophorus electricus (Type V-S, Sigma-Aldrich); purchased Sigma-Aldrich Type V-S
As to the kind of experiment: Inhibition of EeAChE (Ellman's assay). The note with it: mean ± SEM, at least three independent experiments. In kind it is biochemical. On the procedure: (§1) For the preliminary screening of the inhibitory potencies, Electrophorus electricus AChE (EeAChE) and horse serum BuChE (eqBuChE) were used following the Ellman’s assay.
(§2) Assessment of the inhibitory power of BCPOs was performed following the spectrophotometric method of Ellman using purified AChE from Electrophorus electricus (Type V-S, Sigma-Aldrich) or BuChE from horse serum (lyophilized powder, Sigma-Aldrich). Enzymes were first dissolved in 0.1 M phosphate buffer (pH 8.0) and then aliquoted in small vials for easy handling. Compounds stock solutions in DMSO (10 mM) were diluted when necessary with DMSO to prepare appropriate dilutions of each compound. The assay was performed in a final volume of 3 mL of a 0.1 M phosphate-buffered solution at pH 8.0, containing 5,5′-dithiobis-2-nitrobenzoic acid (DTNB, 2625 µL, 0.35 mM, final concentration), EeAChE (29 µL, 0.035 U/mL final concentration) or eqBuChE (60 µL, 0.05 U/mL final concentration) tested compound (3 µL, different concentrations) and 1% (w/v) Bovine Albumin Serum phosphate-buffered (pH 8.0) solution (BSA, 40 µL). The inhibition in comparison to control without compound was determined by pre-incubating this blend at room temperature with each compound at nine different concentrations for 10 min. Then, acetylthiocholine iodide (105 µL, 0.35 mM, final concentration) or butyrylthiocholine iodide (150 µL, 0.5 mM final concentration) was added and incubated for another 15 min at rt. […] Calculation of IC50 values was performed with GraphPad Prism 5. Each concentration was measured in triplicate. Data are expressed as mean ± SEM.
On the technique in general: Ellman's reagent forms a yellow product with free thiols.

The target of data set [2] is T2, horse serum BuChE (eqBuChE) (Equus caballus, UniProt P81908).
T2 construct: BuChE from horse serum (lyophilized powder, Sigma-Aldrich); purchased Sigma-Aldrich; host or cells: horse serum
Description: Inhibition of eqBuChE (Ellman's assay). Type of data set: biochemical. The note with it: 10 µM compound. On the procedure:
as §1, §2

Data set [3] is described as follows: Oxygen radical absorbance capacity by fluorescence (ORAC-FL). The note with it: mean ± SD. How it is done:
Trolox was used as standard, fluorescein as fluorescent probe and 2,2′-azobis(2-amidinopropane) dihydrochloride (AAPH) as the peroxyl radical source. Ferulic acid was used as a positive control.
The antioxidant power of BCPOs was determined following the ORAC-FL method using fluorescein as the fluorescent probe. (±)-6-Hydroxy-2,5,7,8-tetramethylchromane-2-carboxylic acid (Trolox), fluorescein (FL) and AAPH were bought from Sigma-Aldrich (Saint Louis, MO, USA). A Varioskan Flash plate reader with built-in injectors (Thermo Scientific, Waltham, MA, USA) was used. The final volume reaction mixture was 200 µL and the reaction was carried out at 37 °C in 75 mM phosphate buffer (pH 7.4). The tested compounds and Trolox standard were dissolved in DMSO to 10 mM and further diluted in phosphate buffer. The final concentrations were 0.1–1 µM for the tested compounds and 1–8 µM for Trolox standard. The blank was composed of 120 µL of FL, 60 µL of AAPH and 20 µL of phosphate buffer (pH = 7.4) and was added in each assay. The antioxidant (20 µL) and fluorescein (FL, 120 µL, final concentration of 70 nM) were incubated in a black 96-well microplate Nunc, purchazed from Thermo Fisher Scientific, Ecublens, Switzerland) for 15 min at 37 °C. Then, AAPH, 60 µL, final concentration of 12 mM) solution was added quickly using the built-in injector. […] The microplate was automatically shaken prior to each reading. All the experiments were made in triplicate and at least three different assays were performed for each sample.
Using MS Excel software, regression equations were extrapolated by plotting the net AUC against the antioxidant concentration. The ORAC values were then obtained by dividing the slope of the latter curve between the slope of the Trolox curve obtained in the same assay. Final ORAC values were expressed as Trolox equivalents. Data are expressed as mean ± SD.

Data set [4] is described as follows: in vitro. The note with it: for Papp at 100 µM: PAMPA, pH 7.4; for BBB Penetration Estimation CNS (+/−): PAMPA-BBB class. How it is done: Penetration across the BBB is an essential property for compounds targeting the CNS. […] The filter membrane of the donor plate was coated with PBL (Polar Brain Lipid, Avanti, AL, USA) in dodecane (4 µL of 20 mg/mL PBL in dodecane) and the acceptor well was filled with 300 µL of PBS pH 7.4 buffer ([…]). Tested compounds were dissolved first in DMSO and that diluted with PBS pH 7.4 to reach the final concentration 100 µM in the donor well. […] 300 µL of the donor solution was added to the donor wells ([…]) and the donor filter plate was carefully put on the acceptor plate so that coated membrane was “in touch” with both donor solution and acceptor buffer. Test compound diffused from the donor well through the lipid membrane (Area = 0.28 cm^2) to the acceptor well. The concentration of the drug in both donor and the acceptor wells was assessed after 3, 4, 5 and 6 h of incubation in quadruplicate using the UV plate reader Synergy HT (Biotek, Winooski, VT, USA) at the maximum absorption wavelength of each compound.

Data set [5] has as its target T3, Recombinant human Aβ1–42 peptide (Homo sapiens, UniProt P05067).
T3 construct: Recombinant human 1,1,1,3,3,3-hexafluoro-2-propanol pretreated Aβ1–42 peptide; purchased Merck Millipore
As to the kind of experiment: Inhibition of Aβ1-42 aggregation (Thioflavin-T fluorometric assay). In kind it is biochemical. The note with it: for inhibition at 10 µM: 10 µM compound and 1.5 µM Aβ1-42, mean ± standard deviation of two independent experiments. On the procedure:
2. Thioflavin-T (ThT) Fluorometric Assay
Recombinant human 1,1,1,3,3,3-hexafluoro-2-propanol pretreated Aβ1–42 peptide (Merck Millipore, Darmstadt, Germany) was dissolved in DMSO to give 75 µM stock solution. The stock solution was further diluted in HEPES buffered solu tion (150 mM HEPES, pH 7.4, 150 mM NaCl), to 7.5 µM. Aβ1–42 solution was then added to the test compounds in black-walled 96-well plate, and diluted with ThT solution (final concentration of ThT was 10 µM). Final mixture contained 1.5 µM Aβ1–42, 10 µM of test compounds, and 3% DMSO. ThT fluorescence was measured every 5 min (λex = 440 nm, λem = 490 nm), with the medium continuously shaking between measurements using a 96-well microplate reader (Synergy™ H4, BioTek Instruments, Inc., Winooski, VT, USA). The fluorescence intensities at the plateau reached after 24 h in the absence and presence of the test compound were averaged, and the average fluorescence of the corresponding wells at t = 15 min was subtracted. The Aβ1–42 aggregation inhibitory potency is expressed as the percentage inhibition (% inh = (1 − Fi/F0) × 100%), where Fi is the increase in fluorescence of Aβ1–42 treated with the test compound, and F0 is the increase in fluorescence of Aβ1–42 alone.
1. LeVine, H. Thioflavine T interaction with synthetic Alzheimer’s disease beta-amyloid peptides:
Detection of amyloid aggregation in solution. Protein Sci. Publ. Protein Soc. 1993, 2, 404–410.

The values that follow come from publication PMC6273488, “Synthesis and Biological Evaluation of Benzochromenopyrimidinones as Cholinesterase Inhibitors and Potent Antioxidant, Non-Hepatotoxic Agents for Alzheimer’s Disease” (Molecules, 2016).

The IC50 is the concentration that gives 50% inhibition. A low value points to inhibition by little substance. By inhibition is commonly meant the relative decrease from the control value, in per cent. One may read the Papp as a coefficient for how fast a substance crosses the barrier.

Several values for one entry are separate records, joined by “and”; a condition that tells them apart may be missing. Equal entries are not always repeated.

T1 sequence (O42275 24-633): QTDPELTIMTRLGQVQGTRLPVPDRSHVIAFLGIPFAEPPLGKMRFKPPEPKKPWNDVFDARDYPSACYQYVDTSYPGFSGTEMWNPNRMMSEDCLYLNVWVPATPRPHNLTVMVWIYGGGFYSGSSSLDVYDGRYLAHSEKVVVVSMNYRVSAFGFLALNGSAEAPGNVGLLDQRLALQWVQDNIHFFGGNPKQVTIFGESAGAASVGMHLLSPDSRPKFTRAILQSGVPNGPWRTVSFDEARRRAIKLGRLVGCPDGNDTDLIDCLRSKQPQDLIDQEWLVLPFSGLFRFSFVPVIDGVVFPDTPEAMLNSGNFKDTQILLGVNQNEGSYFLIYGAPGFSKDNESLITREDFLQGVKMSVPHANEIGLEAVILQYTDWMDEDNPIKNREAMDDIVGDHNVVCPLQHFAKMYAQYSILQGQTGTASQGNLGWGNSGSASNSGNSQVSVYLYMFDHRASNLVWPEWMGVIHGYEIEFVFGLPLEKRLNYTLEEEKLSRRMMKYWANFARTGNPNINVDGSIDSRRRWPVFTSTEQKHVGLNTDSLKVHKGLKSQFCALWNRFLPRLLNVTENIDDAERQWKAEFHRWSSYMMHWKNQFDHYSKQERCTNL
T2 sequence (P81908 whole entry): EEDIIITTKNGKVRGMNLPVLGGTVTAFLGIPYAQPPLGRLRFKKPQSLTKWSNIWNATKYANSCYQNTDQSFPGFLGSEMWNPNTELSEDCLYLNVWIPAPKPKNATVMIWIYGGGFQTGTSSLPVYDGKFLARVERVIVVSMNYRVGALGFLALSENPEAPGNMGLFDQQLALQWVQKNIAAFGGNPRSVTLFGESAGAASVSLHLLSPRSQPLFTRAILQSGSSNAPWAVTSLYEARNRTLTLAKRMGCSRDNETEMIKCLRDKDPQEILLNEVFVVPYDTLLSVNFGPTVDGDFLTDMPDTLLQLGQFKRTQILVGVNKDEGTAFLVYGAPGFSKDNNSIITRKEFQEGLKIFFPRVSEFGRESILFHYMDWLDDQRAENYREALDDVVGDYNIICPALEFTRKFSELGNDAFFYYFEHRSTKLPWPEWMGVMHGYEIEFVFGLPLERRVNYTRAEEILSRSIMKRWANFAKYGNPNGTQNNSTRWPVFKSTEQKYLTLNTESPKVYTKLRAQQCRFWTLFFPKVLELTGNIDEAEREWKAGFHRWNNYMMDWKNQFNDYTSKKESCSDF
T3 sequence (P05067 672-713): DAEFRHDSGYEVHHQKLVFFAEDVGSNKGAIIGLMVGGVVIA

The compound `O=c1c2c(nc3n1CCCC3)Oc1ccc3ccccc3c1C2c1ccccc1` (centres unmarked) [3Ab, 15-Phenyl-10,11,12,15-tetrahydro-9H-benzo[5,6]chromeno[2,3-d]pyrido[1,2-a]pyrimidin-14-one] yielded an IC50 in data set [1] of 0.0555 ± 0.0071 µM. In data set [2], this compound returned an inhibition at 10 µM of 31.2 ± 1.8%. In data set [3], this compound had an ORAC of 2.3 ± 0.3 Trolox equivalents. In data set [4], the Papp at 100 µM worked out at 7.2 ± 0.6 ×10⁻⁶ cm/s and the “BBB Penetration Estimation CNS (+/−)” value is listed as “CNS (+) (‘CNS (+)’ (high BBB permeability predicted); Pe (10^−6 cm·s^−1) > 4.0)”. The “Aβ1–42 aggregation inhibition (in words)” value in data set [5] (10 µM compound) was “weak inhibition power”. In data set [5], the inhibition at 10 µM stood at 13.6 ± 2.1%.
`COc1cccc(C2c3c(nc4n(c3=O)CCC4)Oc3ccc4ccccc4c32)c1` (centres unmarked) [3Ba, 14-(3′Methoxyphenyl)-10,11-dihydro-14H-benzo[5,6]chromeno[2,3-d]pyrrolo[1,2-a]pyrimidin-13(9H)-one] yielded an IC50 in data set [1] of 0.0607 ± 0.0045 µM. Besides, the inhibition at 10 µM was 51 ± 4% in data set [2] and < 10% in data set [5]. In data set [3], the ORAC turned out to be 3.4 ± 0.2 Trolox equivalents. Also, in data set [4], the Papp at 100 µM is 4.6 ± 0.77 ×10⁻⁶ cm/s. Also, the “BBB Penetration Estimation CNS (+/−)” value in data set [4] is on record as “CNS (+) (‘CNS (+)’ (high BBB permeability predicted); Pe (10^−6 cm·s^−1) > 4.0)”.
In turn, `COc1cccc(C2c3c(nc4n(c3=O)CCCC4)Oc3ccc4ccccc4c32)c1` (centres unmarked) [3Bb, 15-(3′-Methoxyphenyl)-10,11,12,15-tetrahydro-9H-benzo[5,6]chromeno[2,3-d]pyrido[1,2-a]pyrimidin-14-one] returned a concentration for half-maximal inhibition (IC50) in data set [1] of 0.0305 ± 0.0028 µM. Further, in data set [2], the inhibition at 10 µM was 43 ± 1.9%. Further, in data set [3], the ORAC is 4.7 Trolox equivalents and 4.7 ± 0.2 Trolox equivalents. For the same compound, in data set [4], the Papp at 100 µM came out at 3.6 ± 0.57 ×10⁻⁶ cm/s and the “BBB Penetration Estimation CNS (+/−)” value is on record as “CNS (+/−) (‘CNS (+/−) (BBB permeability uncertain); Pe (10^−6 cm·s^−1) from 4.0 to 2.0)”. Also, the inhibition at 10 µM in data set [5] was < 10%.
In data set [1], `Cc1ccc(C2c3c(nc4n(c3=O)CCCC4)Oc3ccc4ccccc4c32)cc1` (centres unmarked) [3Cb, 15-(4′-Methylphenyl)-10,11,12,15-tetrahydro-9H-benzo[5,6]chromeno[2,3-d]pyrido[1,2-a]pyrimidin-14-one] came in with an IC50 of 0.0559 ± 0.0127 µM. Moreover, the inhibition at 10 µM in data set [2] was 19 ± 2%; in data set [5], < 10%. In data set [3], the ORAC worked out at 3.9 ± 0.3 Trolox equivalents.
